The structures appear in SMILES notation.

A short description of the assay: Anti-inflammatory activity. The text has this:
Anti-Inflammatory Activity
Usually IC50 stands for the midpoint of a concentration-inhibition curve. `[H]/N=c1\nc(-c2ccc(OC)c(O)c2)c2c(=O)[nH]c(=O)[nH]c2[nH]1` [Compound 4c, 5-(3-Hydroxy-4-methoxyphenyl)-7-imino-7,8-dihydropyrimido[4,5-d]pyrimidine-2,4 (^1H,3H)-dione]: the IC50 stood at 218 nM.

For `[H]/N=c1\nc(-c2ccc(OC)c(O)c2)c2c(=O)n(C)c(=O)n(C)c2[nH]1` [Compound 4d, 5-(3-Hydroxy-4-methoxyphenyl)-7-imino-1,3-dimethyl-7,8-dihydropyrimido[4,5-d]pyrimid-ine-2,4 (^1H,3H)-dione], the IC50 came out at 106 nM.

With `[H]/N=c1\nc(-c2ccc(OCc3ccccc3)cc2)c2c(=O)[nH]c(=O)[nH]c2[nH]1` [Compound 4b, 5-(4-(Benzyloxy)phenyl)-7-imino-7,8-dihydropyrimido[4,5-d]pyrimidine-2,4 (^1H,3H)-dione], the IC50 came out at 90.9 nM. This IC50 and that of the molecule before are within 1.5-fold of each other.

The molecule `[H]/N=c1\nc(-c2cccc(OCc3ccccc3)c2)c2c(=O)[nH]c(=O)[nH]c2[nH]1` [Compound 4a, 5-(3-(Benzyloxy)phenyl)-7-imino-7,8-dihydropyrimido[4,5-d]pyrimidine-2,4 (^1H,3H)-dione] showed an IC50 of 248 nM.

(Values after patent publication US12187733B1, “5-(Substitutedphenyl)-7-Imino-7,8-Dihydropyrimido[4,5-d]pyrimidine-2,4(1H,3H)-dione analogues as anti-inflammatory agents” (KING FAISAL UNIVERSITY, priority 2023, dated 2025).)
